In article PMC6268972, “Antiproliferative, Antimicrobial and Apoptosis Inducing Effects of Compounds Isolated from Inula viscosa” (Molecules, 2012):
Values after ≈ are worked out from the molar mass of the structure shown.

Key:
MCF-7 cells = test: TUNEL colorimetric apoptosis assay; type: cell-based, human; conditions: 15 µg/mL, 28 h, compared with untreated cells
Protocol: Apoptosis was detected using terminal deoxynucleotidyl transferase (TdT) mediated-16-deoxyuridine triphosphate (dUTP) Nick-End Labelling (TUNEL) system (Promega, Madison, WI, USA). MCF-7 cells cultured in 24 well plates were treated with 15 µg/mL of either 3-O-methylquercetin or 3,3′-di-O-methylquercetin for 28 h. The assay was conducted according to the manufacturer's instructions. Briefly, treated cells were fixed using 10% formalin followed by washing with phosphate buffer saline (PBS). Cells were then permeabilized using 0.2% triton X-100. Biotinylated dUTP in rTdT reaction mixture was added to label the fragmented DNA at 37 °C for one hour, followed by blocking endogenous peroxidases using 0.3% hydrogen peroxide. Streptavidin HRP (1:500 in PBS) was added and incubated at room temperature for 30 min. Finally, hydrogen peroxide and chromagen diaminobenzidine were used to visualize nuclei with fragmented DNAs under the light microscope (Novex, Arnhem, Holland). Cells treated with 40 nM vincristine sulfate were used as a positive control while untreated cells were used as a negative control.

Hep-2 cells = test: MTT antiproliferative activity assay, Hep-2; type: cell-based; conditions: Homo sapiens, HEp-2; MTT, 48 h treatment, average of three replicates; read-out: IC50 Hep-2
Protocol: Hep-2 (larynx carcinoma, ATCC: CCL-23), MCF-7 (breast epithelial adenocarcinoma, ATCC: HTB-22), and Vero (African green monkey kidney, ATCC: CCL-81) cell lines were kindly provided by Dr. Mona Hassuneh (Department of Biological Sciences, University of Jordan). Cells were grown in Minimum Essential Medium Eagle (Gibco, Paisley UK) supplemented with 10% heat inactivated fetal bovine serum (Gibco, Paisley UK), 29 μg/mL L-glutamine, and 40 μg/mL gentamicin. Cells were incubated in a humidified atmosphere of 5% CO2 at 37 °C.
The antiproliferative activity of Inula viscosa compounds was measured using the MTT (3-(4,5-dimethylthiazol-2-yl)-2,5-diphenyltetrazolium bromide) assay (Promega, Madison, WI, USA). The assay detects the reduction of MTT by mitochondrial dehydrogenase to blue formazan product, which reflects the normal function of mitochondria and cell viability. Exponentially growing cells were washed and seeded at 17,000 cells/well for Hep-2 cell line and 11,000 cells/ well for MCF-7 cell line (in 200 μL of growth medium) in 96 well microplates (Nunc, Roskilde, Denmark). After 24 h incubation, a partial monolayer was formed then the media was removed and 200 μL of the medium containing the compound (initially dissolved in DMSO) were added and re-incubated for 48 h. Then 100 μL of the medium were aspirated and 15 μL of the MTT solution were added to the remaining medium (100 μL) in each well. After 4 h contact with the MTT solution, blue crystals were formed. One hundred μL of the stop solution were added and incubated further for 1 h.
Reduced MTT was assayed at 550 nm using a microplate reader (Biotek, Winooski, VT, USA). Control groups received the same amount of DMSO (0.1%).Untreated cells were used as a negative control while, cells treated with vincristine sulfate were used as a positive control. Eight concentrations (150, 100, 50, 20, 10, 5, 2, and 1 μg/mL) were prepared from each compound and tested against the three cell lines. IC50 values were calculated as the concentrations that show 50% inhibition of proliferation on any tested cell line. Stock solutions of the compounds were dissolved in (DMSO) then diluted with the medium and sterilized using 0.2 μm membrane filters. The toxicity of DMSO was determined and the final dilution of compounds used for treating the cells contained not more than 0.1% (non toxic concentration) DMSO. IC50 values were reported as the average of three replicates. The antiproliferative effect of the tested compounds was determined by comparing the optical density of the treated cells against the optical density of the control (cells treated with media containing 0.1% DMSO).

[1] = test system: Methicillin resistant Staphylococcus aureus (MRSA); test: Microtiter plate dilution MIC, MRSA; type: cell-based; conditions: Staphylococcus aureus, MRSA; clinical isolate, 24 h, 100% inhibition; read-out: Minimum inhibitory concentration (MIC) MRSA
Protocol: The microbial strains used in this study were Escherichia coli (ATCC 10798), Salmonella typhimurium (ATCC14028), Methicillin resistant Staphylococcus aureus (MRSA, Clinical isolate), Bacillus cereus (Toxigenic strain TS), and Candida albicans (ATCC 90028). Bacterial strains were stocked onto nutrient agar slant at 4 °C, and Candida albicans was stocked onto malt agar slant at 4 °C.
The microtiter plate dilution method was used to determine the MIC (minimum inhibitory concentration) of compounds under study. Sterile 96-well microplates (Nunc) were used for the assay. Stock compounds were dissolved in DMSO so that the final concentrations in micro wells were less than 1% DMSO and solvent controls were run at these concentrations. Positive controls of penicillin G and tetracycline (Oxoid, Hampshire, UK) were prepared at the following concentrations 2, 4, 8, 16, 31, 62.5, 125, and 250 μg/mL. 1% DMSO was used as a solvent control. Compounds were diluted to twice the desired initial test concentration (250 µg/mL) with Muller Hinton broth (MHB) (Oxoid). All wells, except the first were filled with MHB (50 μL). Compounds (100 μL) were added to the first well and serial two-fold dilutions were made down to the desired minimum concentration (2 μg/mL). An over-night culture of bacteria suspended in MHB was adjusted to turbidity equal to 0.5 McFarland standard. The plates were inoculated with bacterial suspension (50 μL/well) and incubated at 37 °C for 24 h. Then the turbidity was measured using micro-plate reader (Biotek) at 620 nm wavelength. The same procedure was used to determine the antifungal activity of compounds against Candida albicans. The medium used was malt extract broth. The yeast cells were suspended in 0.85% saline, with an optical density equivalent to 0.5 McFarland standard, and diluted 1:100 in malt extract broth to obtain the working concentration. After 24 h incubation with each compound, the turbidity was measured at 530 nm wavelength using a spectrophotometer (Biotek). Percentage inhibition for tested microorganisms was calculated using the following formula:
MIC was determined as the lowest concentration of the compound that causes complete inhibition (100%) of each microorganism.

MIC [1]: 250 µg/mL (≈ 757 µM)
Structure (SMILES): COc1cc(-c2oc3cc(O)cc(O)c3c(=O)c2OC)ccc1O [3,3′-di-O-Methylquercetin]
Apoptosis induction (DNA fragmentation, TUNEL) (MCF-7 cells): increase in the number of apoptotic cells with fragmented DNA | IC50 (Hep-2 cells): 28 ± 1.13 µg/mL (≈ 84.8 µM)
